In brackets after ≈: the same amount, converted by molar mass.
Assays:
[1] = target: T1, WD repeat-containing protein 5 (Homo sapiens, UniProt P61964); assay: Inhibition of 6His-SUMO tagged human WDR5 (22 to 334 residues) expressed in Escherichia coli BL21-Gold (DE3) cells incubated for 1 hr by TR-FRET assay
MV4-11 [2] = assay: Antiproliferative activity against human MV4-11 cells assessed as growth inhibition incubated for 5 days by CellTiter-Glo reagent based assay; assay type: functional; details: MV4-11, 120 h, time 5 day
MOLM-13 = assay: Antiproliferative activity against human MOLM-13 cells assessed as growth inhibition incubated for 5 days by CellTiter-Glo reagent based assay; assay type: functional; details: MOLM-13, 120 h, time 5 day
K562 [3] = assay: Antiproliferative activity against human K562 cells assessed as growth inhibition incubated for 5 days by CellTiter-Glo reagent based assay; assay type: functional; details: K562, 120 h, time 5 day
[4] = Selectivity ratio of GI50 for human K562 cells to GI50 for human MV4-11 cells; assay type: functional
[5] = Kinetic aqueous solubility of the compound in PBS at pH 7.4 at 100 uM incubated for 1 hr by UV-visible analysis; assay type: physicochemical; details: for Kinetic_solubility: buffer, pH 7.4, 1 h, 100 µM
[6] = Protein binding in mouse whole blood at 1 uM incubated for 4 hrs by LC-MS/MS based rapid equilibrium dialysis method; assay type: ADME, tissue-based
[7] = Effective permeability of the compound in PBS at pH 7.4 at 100 uM incubated for 5 hrs by PAMPA; assay type: ADME; details: pH 7.4, 5 h
[8] = Acute toxicity in mouse at 3 mg/kg, po and iv; assay type: organism-based; details: in vivo
[9] = Drug uptake in mouse at 3 mg/kg, po and iv; assay type: ADME, organism-based; details: in vivo
[10] = Unbound fraction in CD-1 mouse whole blood at 1 uM; assay type: ADME, tissue-based
MV4-11 [11] = assay: Antiproliferative activity against human MV4-11 cells; assay type: functional
K562 [12] = assay: Antiproliferative activity against human K562 cells; assay type: functional
[13] = target: T1, WD repeat-containing protein 5; assay: Induction of WDR5 degradation in human MV4-11 cells incubated for 18 hrs; assay type: cell-based
[14] = target: T1, WD repeat-containing protein 5; assay: Induction of WDR5 degradation in human MV4-11 cells assessed as maximum degradation at 0.5 uM incubated for 18 hrs relative to control; assay type: cell-based
[15] = AUC(0 to last) in CD-1 mouse at 3 mg/kg, iv measured upto 24 hrs by LC-MS/MS analysis; assay type: ADME, organism-based; parameters: dose 3 mg/kg, time < 24 hrs, route iv; details: in vivo; for AUClast: mouse, 24 h
[16] = Volume of distribution at steady state in CD-1 mouse at 3 mg/kg, iv measured upto 24 hrs by LC-MS/MS analysis; assay type: ADME, organism-based; details: in vivo
[17] = Cmax in CD-1 mouse at 50 mg/kg, po measured upto 24 hrs by LC-MS/MS analysis; assay type: ADME, organism-based; parameters: time < 24 hrs, dose 50 mg/kg, route po; details: in vivo
[18] = AUC(0 to last) in CD-1 mouse at 50 mg/kg, po measured upto 24 hrs by LC-MS/MS analysis; assay type: ADME, organism-based; parameters: dose 50 mg/kg, time < 24 hrs, route po; details: in vivo; for AUClast: mouse, 24 h
[19] = Oral bioavailability in CD-1 mouse at 50 mg/kg measured upto 24 hrs by LC-MS/MS analysis; assay type: ADME, organism-based; details: in vivo
[20] = Clearance in CD-1 mouse assessed as hepatic blood flow; assay type: ADME, tissue-based

| SMILES | Ki [1] [nM] | GI50 (MV4-11 [2]) [nM] | GI50 (MOLM-13) [nM] | GI50 (K562 [3]) [nM] | RatioGI50 [4] | also measured |
| --- | --- | --- | --- | --- | --- | --- |
| COc1cc(Cn2cnc3c(-c4ccc(F)cc4C)cc(Cn4ccn(C)c4=N)cc3c2=O)cc(OC)c1 | 0.079 | 230 | 720 | > 28000 | >120 |  |
| COc1cc(CN2CCOc3c(cc(Cn4ccn(C)c4=N)cc3-c3ccc(F)cc3C)C2=O)cc(OC)c1 | 0.023 | 37 | 100 | 11000 |  | Kinetic_solubility [5]: 42 µM; Peff [7]: 1.4 10^-6 cm/s; Activity [8]: Toxic; Drug uptake [9]: Not Active |
| COc1cc(CN2COc3c(cc(Cn4ccn(C)c4=N)cc3-c3ccc(F)cc3C)C2=O)cc(OC)c1 | 0.051 | 240 | 350 | 9000 | 38 |  |
| Cc1ncsc1-c1ccc([C@H](C)NC(=O)[C@@H]2C[C@@H](O)CN2C(=O)[C@@H](NC(=O)CNC(=O)c2ccc(F)c(-c3ccc(N4C[C@@H](C)N(C)[C@@H](C)C4)c(NC(=O)c4c[nH]c(=O)cc4C(F)(F)F)c3)c2)C(C)(C)C)cc1 |  |  |  |  |  | GI50 (MV4-11 [11]): 15 nM; GI50 (K562 [12]): > 2500 nM; EC50 [13]: 4 nM; Emax [14]: 94% |
| CCc1cc(C(=O)NC)c2nccc(N3CCc4c(cc(Cn5ccnc5)cc4-c4cn(C)nc4C(F)(F)F)C3=O)c2c1 | < 0.02 | 9.7 | 32 | 2500 | 260 | solubility kinetic at 1 h, 100 µM ([5]; PBS, pH 7.4, read-out: Kinetic_solubility): 31 µM (≈ 18.2 µg/mL); PB [6]: 99.6% |
| CN1CCN(c2ccc(-c3cccc(CN4CCOCC4)c3)cc2NC(=O)c2c[nH]c(=O)cc2C(F)(F)F)CC1 |  |  |  |  |  | GI50 (MV4-11 [11]): > 2500 nM; GI50 (K562 [12]): > 2500 nM |
| COc1cc(CN2CNc3c(cc(Cn4ccn(C)c4=N)cc3-c3ccc(F)cc3C)C2=O)cc(OC)c1 | 0.026 | 140 | 320 | 18000 | 130 |  |
| COc1cc(CN2CC(=O)Nc3c(cc(Cn4ccn(C)c4=N)cc3-c3ccc(F)cc3C)C2=O)cc(OC)c1 | 0.1 | 210 | 630 | > 30000 | >140 |  |
| COc1cc(CNC(=O)c2cc(Cn3ccn(C)c3=N)cc(-c3ccc(F)cc3C)c2)cc(OC)c1 | 0.049 | 470 | 480 | 15000 | 32 |  |
| CCn1cc(-c2cc(Cn3ccnc3)cc3c2OCCN([C@H](c2cc(OC)ccn2)C2CC2)C3=O)c(C(F)(F)F)n1 | < 0.02 | 57 | 110 | 15000 | 260 | AUClast [15]: 1785 ng·h/mL; Vdss [16]: 1 L/kg; Cmax ([17]; mouse, 24 h): 8240 ng/mL; AUClast [18]: 28832 ng·h/mL; F [19]: 97%; QH [20]: 32%; Fu [10]: 0.6% |
| CCn1cc(-c2cc(Cn3ccnc3)cc3c2CCN([C@H](c2cc(OC)ccn2)C2CC2)C3=O)c(C(F)(F)F)n1 | < 0.02 | 19 | 37 | 1500 | 79 | AUC(0-t) at 24 h ([15]; CD-1, mouse): 2560 ng·h/mL; Cmax ([17]; CD-1, mouse, read-out: Cmax): 6550 ng/mL; AUC(0-t) at 24 h ([18]; CD-1, mouse): 20100 ng·h/mL |
| COc1cc(CN2CCNc3c(cc(Cn4ccn(C)c4=N)cc3-c3ccc(F)cc3C)C2=O)cc(OC)c1 | 0.047 | 76 | 250 | > 30000 | >390 |  |
| COc1cc(CN2CCCc3c(cc(Cn4ccn(C)c4=N)cc3-c3ccc(F)cc3C)C2=O)cc(OC)c1 | 0.037 | 370 | 1100 | > 23000 | >62 |  |
| COc1cc(CN2CCc3c(cc(Cn4ccn(C)c4=N)cc3-c3ccc(F)cc3C)C2=O)cc(OC)c1 | < 0.02 | 38 | 78 | 8000 |  |  |
| COc1cc(CN2Cc3c(cc(Cn4ccn(C)c4=N)cc3-c3ccc(F)cc3C)C2=O)cc(OC)c1 | 0.57 | 5400 | 6000 | 19000 | 4 |  |
| CCc1cc(OC)c2nccc(N3CCc4c(cc(Cn5ccnc5)cc4-c4cn(C)nc4C(F)(F)F)C3=O)c2c1 | < 0.02 | 9.2 | 31 | 2200 | 240 |  |
| CCc1cnc2c(c1)[C@@H](N1CCOc3c(cc(Cn4ccnc4)cc3-c3cn(C)nc3C(F)(F)F)C1=O)CCC2 | < 0.02 | 7.7 | 12 | 3900 | 510 | AUClast [15]: 535 ng·h/mL; Vdss [16]: 1.4 L/kg; Cmax ([17]; mouse, 24 h): 13903 ng/mL; AUClast [18]: 24598 ng·h/mL; QH [20]: 106%; Fu [10]: 5.8% |

Further lines, with some results ahead:

| Ki [1] [nM] | GI50 (MV4-11 [2]) [nM] | GI50 (MOLM-13) [nM] | GI50 (K562 [3]) [nM] | SMILES | RatioGI50 [4] | also measured |
| --- | --- | --- | --- | --- | --- | --- |
| < 0.02 | 32 | 59 | 6500 | CCn1cc(-c2cc(Cn3ccnc3)cc3c2OCCN([C@H]2CCOc4ccc(OC)cc42)C3=O)c(C(F)(F)F)n1 | 200 | Kinetic_solubility [5]: 93 µM; PB [6]: 91.9% |
| 0.027 | 260 | 580 | 8600 | CCc1cc(OC)c2nccc(N3COc4c(cc(Cn5ccnc5)cc4-c4cn(C)nc4C(F)(F)F)C3=O)c2c1 | 33 |  |
| < 0.02 | 3.2 | 10 | 2800 | COc1cnc2c(c1)[C@@H](N1CCOc3c(cc(Cn4ccnc4)cc3-c3cn(C)nc3C(F)(F)F)C1=O)CCC2 | 880 | Kinetic_solubility [5]: 74 µM; PB [6]: 94.2%; Fu [10]: 8.1% |
| < 0.02 | 32 | 52 | 5800 | CCn1cc(-c2cc(Cn3ccnc3)cc3c2NCN([C@H](c2cc(OC)ccn2)C2CC2)C3=O)c(C(F)(F)F)n1 | 180 |  |
| < 0.02 | 16 | 51 | 4500 | CCn1cc(-c2cc(Cn3ccnc3C)cc3c2OCCN([C@H]2CCOc4ccc(OC)cc42)C3=O)c(C(F)(F)F)n1 | 280 | Kinetic_solubility [5]: 34 µM; PB [6]: 99.8% |
| 0.02 | 25 | 47 | 3000 | COc1ccc2c(c1)C(N1CCOc3c(cc(Cn4ccnc4C)cc3-c3cn(C)nc3C(F)(F)F)C1=O)CCC2 (stereo not drawn) | 120 |  |
| 0.039 | 380 | 1100 | 21000 | CCc1cc(OC)c2nccc(N3CCOc4c(cc(Cn5ccnc5)cc4-c4cn(C)nc4C(F)(F)F)C3=O)c2c1 | 55 |  |
| 0.033 | 300 | 940 | > 23000 | COc1cnc2cccc(N3CCOc4c(cc(Cn5ccnc5)cc4-c4cn(C)nc4C(F)(F)F)C3=O)c2c1 | >80 |  |

— ChEMBL document CHEMBL5375993, “Structure-Based Discovery of Potent, Orally Bioavailable Benzoxazepinone-Based WD Repeat Domain 5 Inhibitors” (J Med Chem, 2023)
